Reference: US7459532B2, “Variants of the TRP channel family member, LTRPC3G” (Bristol-Myers Squibb Company, priority 2003, dated 2008)
“Also recorded” adds a separate entry of the source.

Experiments:
HEK 293 cells = assay: Ca^2+ store depletion in LTRPC3-HA- and vector-transfected HEK 293 cells; assay type: cell-based
Description: (§1) […] (A), or 50 μM carbachol (B) was first added to LTRPC3 variant expressing HEK 293 cells in the absence of external Ca^2+. After 9 minutes, 2 mM Ca^2+ solution was added to the cell medium at the indicated times. Currents for vector transfected HEK 293 cells, and LTRPC3 variant expressing HEK 293 cells are labeled accordingly. […] Cells loaded with Fluo-4 were incubated in 1 mM Ca^2+ solution and treated with 100 μM of La^3+ (“w/La^3+”), Gd^3+ (“w/Gd^3+”) or without blockers (“w/o blocker”) for 10 min prior to the addition of 10 mM Ca^2+ to the cell medium as indicated. Curves represent averages of three independent experiments, each involving at least 8 wells per condition. Physiometric methods were performed as described in Example 7 herein.
The store-operated mechanism of LTRPC3-mediated Ca^2+ influx was tested further by passively depleting Ca^2+ stores with thapsigargin (TG), an inhibitor of microsomal Ca^2+ ATPases that pumps ions from the cytosol back into the stores. […] Following store depletion with TG, addition of Ca^2+ to the buffer induced a much larger Ca^2+ entry in LTRPC3 cells compared to the vector control cells.
Receptor-mediated Ca^2+ entry was also more pronounced in LTRPC3-HA-transfected cells. Carbachol (CCh) can activate an endogenous muscarinic receptor and trigger IP3 production, leading to store-depletion in HEK 293 cells. […]

LTRPC3 = molecular target: T1, LTRPC3 (Homo sapiens, UniProt Q9HCF6, R1695Q); assay: FLIPR Fluo-4 Ca^2+ entry in LTRPC3-transfected HEK 293 cells; assay type: cell-based; settings: for block of LTRPC3 Ca^2+ conductance/currents (in words): 1 mM Ca^2+ solution, addition of 10 mM Ca^2+; for block of LTRPC3 Ca^2+ currents: pre-treatment with 100 μM, stimulated by adding 10 mM Ca^2+
T1 construct: the complete open reading frame of LTRPC3 with a C-terminal HA tag was transiently transfected into HEK 293 cells; expressed in transfected cells; host or cells: HEK 293 (transient transfection, vector pcDNA3.1/Hygro-LTRPC3-HA)
T1 sequence (Q9HCF6 with tags, fused parts or gaps isoform Q9HCF6-2 R1670Q): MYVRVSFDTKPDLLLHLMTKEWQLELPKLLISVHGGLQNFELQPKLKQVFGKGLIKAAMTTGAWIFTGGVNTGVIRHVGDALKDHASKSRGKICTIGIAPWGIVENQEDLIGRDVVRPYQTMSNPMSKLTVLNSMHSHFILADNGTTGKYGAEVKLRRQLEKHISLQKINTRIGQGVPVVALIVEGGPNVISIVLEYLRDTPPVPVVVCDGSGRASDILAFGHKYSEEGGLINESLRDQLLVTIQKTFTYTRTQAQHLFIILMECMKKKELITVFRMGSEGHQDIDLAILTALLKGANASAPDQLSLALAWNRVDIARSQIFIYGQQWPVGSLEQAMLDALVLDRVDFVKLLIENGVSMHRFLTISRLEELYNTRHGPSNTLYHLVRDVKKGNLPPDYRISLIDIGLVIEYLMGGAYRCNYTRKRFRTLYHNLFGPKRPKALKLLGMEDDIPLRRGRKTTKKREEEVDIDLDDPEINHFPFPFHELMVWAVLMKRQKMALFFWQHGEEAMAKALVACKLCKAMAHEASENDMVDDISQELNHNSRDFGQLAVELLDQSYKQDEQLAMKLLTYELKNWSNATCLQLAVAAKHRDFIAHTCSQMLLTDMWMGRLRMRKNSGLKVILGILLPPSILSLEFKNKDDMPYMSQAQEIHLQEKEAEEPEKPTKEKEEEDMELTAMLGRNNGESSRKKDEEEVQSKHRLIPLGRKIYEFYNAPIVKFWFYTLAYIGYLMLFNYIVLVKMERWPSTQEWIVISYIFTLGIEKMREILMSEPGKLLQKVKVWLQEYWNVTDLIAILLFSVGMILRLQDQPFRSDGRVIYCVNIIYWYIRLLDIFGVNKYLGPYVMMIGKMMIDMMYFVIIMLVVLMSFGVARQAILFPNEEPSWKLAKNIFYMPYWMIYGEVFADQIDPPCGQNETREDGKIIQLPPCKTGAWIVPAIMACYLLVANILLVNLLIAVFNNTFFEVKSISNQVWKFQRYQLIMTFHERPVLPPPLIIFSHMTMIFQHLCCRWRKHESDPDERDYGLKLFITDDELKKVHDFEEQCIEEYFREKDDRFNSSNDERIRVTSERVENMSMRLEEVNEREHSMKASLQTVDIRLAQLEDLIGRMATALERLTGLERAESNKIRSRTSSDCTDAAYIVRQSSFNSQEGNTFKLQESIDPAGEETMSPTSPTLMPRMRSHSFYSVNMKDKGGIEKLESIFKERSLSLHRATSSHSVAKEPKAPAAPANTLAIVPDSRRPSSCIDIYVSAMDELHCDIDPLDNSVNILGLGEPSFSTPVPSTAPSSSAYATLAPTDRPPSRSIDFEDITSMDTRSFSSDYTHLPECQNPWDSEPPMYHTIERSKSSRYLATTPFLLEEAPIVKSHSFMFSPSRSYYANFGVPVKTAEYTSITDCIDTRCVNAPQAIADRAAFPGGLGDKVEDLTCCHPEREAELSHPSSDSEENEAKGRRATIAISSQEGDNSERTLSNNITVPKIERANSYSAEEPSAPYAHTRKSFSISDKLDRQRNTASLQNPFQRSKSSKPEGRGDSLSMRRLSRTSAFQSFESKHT
Description: as §1
(§2) Panels A, C and E show results obtained for vector-transfected cells, while Panels B, D and F show results obtained for TRPM3-transfected cells. […] Cells loaded with Fluo-4 were incubated in 1 mM Ca^2+ solution and treated with 100 μM of Gd^3+ (red) or without blockers (black) for 10 min prior to the addition of 10 mM Ca^2+ to the bath solution as indicated. […] Cells loaded with Fluo-4 were incubated in a nominally Ca^2+-free media and treated without blockers (black) or with 100 μM of Gd^3+ (red) for 10 min prior to the addition of 2 μM TG (Panels C and D, first arrow) or 50 μM CCh (Panels E and F, first arrow), Ca^2+ entry was stimulated by the bath addition of 10 mM Ca^2+ (second arrow). Representative traces from one of three independent experiments are shown; each trace is the mean of 12 wells per condition. Physiometric methods were performed as described in Example 10 herein.
Moreover, physiometric studies have shown that LTRPC3 is a functional Ca^2+ permeable channel (see FIGS. 18 and 19, and Example 7). LTRPC3g function was assessed using a Fluorometric Imaging Plate Reader (FLIPR™) that measures real-time intracellular fluorescence changes. Cells transiently transfected with vector or LTRPC3-HA were loaded with the cytoplasmic Ca^2+ indicator Fluoro-4 in a 1 mM Ca^2+ solution. […] The non-transfected cells were indistinguishable from the vector-transfected cells (data not shown). Therefore, LTRPC3 is a constitutively active channel capable of mediating Ca^2+ influx.
The lanthanides, gadolinium (Gd^3+) and lanthanum (La^3+), are noneselective Ca^2+-permeable channel blockers, often used as part of the characterization of overexpressed TRP channels. […] In the presence of 1 mM Ca^2+ in which endogenous SOCs is minimally activated (FIG. 18A), pre-treatment with 100 μM of La^3+ and Gd^3+ blocked LTRPC3 Ca^2+ currents, stimulated by adding 10 mM Ca^2+, by 67 and 39%, respectively.
Additional experiments were performed to further confirm the Ca^2+ store-depleted activation of LTRPC3 using Gd^3+. The effects of 100 μM Gd^3+ on Ca^2+ permeability were tested in vector- and LTRPC3-transfected cells. […] In contrast, 100 μM Gd^3+ inhibited Ca^2+ entry, induced by adding 10 mM Ca^2+, by 53% in LTRPC3-transfected cells (see FIG. 22B). Gd^3+ reduced fluorescence units in vector-transfected cells from 1470±140 to −58±8 and in LTRPC3-transfected cells from 6000±322 to 2080±199 (n=12). Fluorescence values were measured 150 seconds after adding 10 mM Ca^2+ and percent blockade was calculated as 1 minus FLTRPC3-FVector in the presence of Gd^3+ divided by FLTRPC3-FVector without blocker. The effects of Gd^3+ on LTRPC3-mediated Ca^2+ entry, induced by 10 mM Ca^2+, in the presence of thapsigargin or carbachol was also examined. Cells were incubated in nominally Ca^2+-free medium for thapsigargin and carbachol experiments. Gd^3+ inhibited Ca^2+ entry by 51% after depletion of intracellular stores with thapsigargin (see FIG. 22B). Gd^3+ reduced peak fluorescence after 10 mM Ca^2+ addition in vector-transfected cells from 26444±2410 to 1316±60 and in LTRPC3-transfected cells from 37676±2425 to 6783±250 (see FIGS. 22C and D, respectively; n=12). […]

[1] = test system: endogenous Ca^2+ entry pathways present in HEK 293 cells; assay: FLIPR Fluo-4 Ca^2+ entry in vector-transfected HEK 293 cells; assay type: cell-based; settings: 100 μM
Description: as §2
To further address the mechanism of LTRPC3-mediated Ca^2+ entry, similar Ca^2+ addition experiments were performed on transfected cells incubated (˜30 min) in a nominally Ca^2+-free solution. Previous studies have shown that lowering extracellular Ca^2+ concentration below physiological levels can deplete intracellular Ca^2+ stores in many cell types including HEK 293 (EMBO J. 17, 4274-4282, (1998)). Incubating vector-transfected HEK 293 cells in a nominally Ca^2+-free solution gave rise to Ca^2+ entry that was dependent on the concentration of Ca^2+ added to the buffers, indicating Ca^2+ influx was mediated through endogenous SOCs in HEK293 cells (FIG. 18, left panels). In LTRPC3 cells, the Ca^2+ transients triggered by similar Ca^2+ treatment were much larger (FIG. 18, right panels).
Additional experiments were performed to further confirm the Ca^2+ store-depleted activation of LTRPC3 using Gd^3+. The effects of 100 μM Gd^3+ on Ca^2+ permeability were tested in vector- and LTRPC3-transfected cells. […] In contrast, 100 μM Gd^3+ inhibited Ca^2+ entry, induced by adding 10 mM Ca^2+, by 53% in LTRPC3-transfected cells (see FIG. 22B). Gd^3+ reduced fluorescence units in vector-transfected cells from 1470±140 to −58±8 and in LTRPC3-transfected cells from 6000±322 to 2080±199 (n=12). Fluorescence values were measured 150 seconds after adding 10 mM Ca^2+ and percent blockade was calculated as 1 minus FLTRPC3-FVector in the presence of Gd^3+ divided by FLTRPC3-FVector without blocker. […] Gd^3+ reduced peak fluorescence after 10 mM Ca^2+ addition in vector-transfected cells from 26444±2410 to 1316±60 and in LTRPC3-transfected cells from 37676±2425 to 6783±250 (see FIGS. 22C and D, respectively; n=12). […] Gd^3+ reduced peak Ca^2+ fluorescence in vector-transfected cells from 9327±466 to 453±15 and in LTRPC3-transfected cells from 14747±988 to 1975±79 (see FIGS. 22E and F, respectively; n=12).

female recipients = settings: picogram quantities to the female vomeronasal organ; cited from earlier work
[2] = test system: nigral dopaminergic neurons; settings: gel foam implants in the striatum; cited from earlier work
Human lung fibroblasts = assay: human lung fibroblast growth assay with Alamar Blue; assay type: cell-based; settings: 3 days in basal medium
Description: Human lung fibroblasts are obtained from Clonetics (San Diego, Calif.) and maintained in growth media from Clonetics. Dermal microvascular endothelial cells are obtained from Cell Applications (San Diego, Calif.). For proliferation assays, the human lung fibroblasts and dermal microvascular endothelial cells can be cultured at 5,000 cells/well in a 96-well plate for one day in growth medium. The cells are then incubated for one day in 0.1% BSA basal medium. After replacing the medium with fresh 0.1% BSA medium, the cells are incubated with the test proteins for 3 days. Alamar Blue (Alamar Biosciences, Sacramento, Calif.) is added to each well to a final concentration of 10%. The cells are incubated for 4 hr. Cell viability is measured by reading in a CytoFluor fluorescence reader. For the PGE2 assays, the human lung fibroblasts are cultured at 5,000 cells/well in a 96-well plate for one day. […]

[3] = 100 μM, nominally Ca^2+-free medium, 10 mM Ca^2+ addition

**Q.** With C[N+](C)(C)CCOC(N)=O [CCh, Carbachol] as the compound, how does the “intracellular Ca^2+ response (in words)” value (HEK 293 cells; 50 μM, LTRPC3- and vector-transfected cells) read?
**A.** The value was “transient and rapid intracellular Ca^2+ increase”.

**Q.** With [Gd+3] [Gd^3+, gadolinium (Gd^3+)] as the compound, how does the “block of LTRPC3 Ca^2+ conductance/currents (in words)” value (LTRPC3; 100 μM for 10 min) read?
**A.** Its value is “partially inhibited”.

**Q.** What about the “effect on Tg and CCh induced LTRPC3 variant-mediated Ca^2+ entry (in words)” value (LTRPC3; 100 μM for 10 min, nominally Ca^2+-free media, 2 μM TG or 50 μM CCh, 10 mM Ca^2+) of the same compound?
**A.** Its value is “can be inhibited”.

**Q.** And the “fluorescence in the presence of blocker, LTRPC3-transfected cells” value (LTRPC3; 100 μM, 1 mM Ca^2+, 150 seconds after adding 10 mM Ca^2+, n=12)?
**A.** The value was 2080±199 fluorescence units.

**Q.** And the “inhibition of Ca^2+ entry (percent blockade)” value (LTRPC3; 100 μM, cells in 1 mM Ca^2+, induced by adding 10 mM Ca^2+, 150 seconds after addition)?
**A.** The value was 53%.

**Q.** And the “inhibition of Ca^2+ entry after depletion of intracellular stores with carbachol” value (LTRPC3; [3])?
**A.** The value was 72%.

**Q.** What about the “inhibition of Ca^2+ entry after depletion of intracellular stores with thapsigargin” value (LTRPC3; [3]) of the same compound?
**A.** The value was 51%.

**Q.** And the “peak Ca^2+ fluorescence in the presence of blocker after carbachol, LTRPC3-transfected cells” value (LTRPC3; 100 μM, nominally Ca^2+-free medium, 10 mM Ca^2+ addition, n=12)?
**A.** Its value is 1975±79.

**Q.** What about the “peak fluorescence in the presence of blocker after thapsigargin, LTRPC3-transfected cells” value (LTRPC3; 100 μM, nominally Ca^2+-free medium, after 10 mM Ca^2+ addition, n=12) of the same compound?
**A.** The value was 6783±250.

**Q.** What about the “block of LTRPC3 Ca^2+ currents” value (LTRPC3; 1 mM Ca^2+) of the same compound?
**A.** The value was 39%.

**Q.** What about the “fluorescence in the presence of blocker, vector-transfected cells” value ([1]; 1 mM Ca^2+, 150 seconds after adding 10 mM Ca^2+, n=12) of the same compound?
**A.** Its value is −58±8 fluorescence units.

**Q.** And the “effect on minimal Ca^2+ influx in vector-transfected cells (in words)” value ([1]; 1 mM Ca^2+, addition of 10 mM Ca^2+)?
**A.** Its value is “strongly inhibited”.

**Q.** And the “peak Ca^2+ fluorescence in the presence of blocker after carbachol, vector-transfected cells” value ([1]; nominally Ca^2+-free medium, 10 mM Ca^2+ addition, n=12)?
**A.** The value was 453±15.

**Q.** And the “peak fluorescence in the presence of blocker after thapsigargin, vector-transfected cells” value ([1]; nominally Ca^2+-free medium, after 10 mM Ca^2+ addition, n=12)?
**A.** The value was 1316±60.

**Q.** Which results are given for [La+3] [La^3+, lanthanum (La^3+)]?
**A.** block of LTRPC3 Ca^2+ conductance/currents (in words) (LTRPC3; 100 μM for 10 min): inhibited; also recorded: more potent; block of LTRPC3 Ca^2+ currents (LTRPC3; 1 mM Ca^2+): 67%

**Q.** Which “nervousness, tension and other negative feelings” value (female recipients) does the source give for C[C@@]12C=CC[C@H]1[C@@H]1CCC3=CC(=O)CC[C@]3(C)[C@H]1CC2 [androstadienone] here?
**A.** The value was “significant reduction”.

**Q.** Which “depletion of Ca^2+ stores (in words)” value (HEK 293 cells; 2 μM, LTRPC3-HA- and vector-transfected cells) does the source give for C/C=C(/C)C(=O)O[C@H]1C(C)=C2[C@H]([C@@H]1OC(=O)CCCCCCC)[C@@](C)(OC(C)=O)C[C@H](OC(=O)CCC)[C@@]1(O)[C@H]2OC(=O)[C@@]1(C)O [thapsigargin] here?
**A.** Its value is “equivalently depleted Ca^2+ stores”.

**Q.** What does the source list for “FGF-2: FGF-2 (basic FGF), growth factor used as comparator”?
**A.** protection of nigral dopaminergic neurons from the toxicity associated with MPTP exposure [2]: near complete protection; concentration at which stimulation of fibroblast growth should be shown (Human lung fibroblasts): 10 to 2500 ng/mL
